Our source for the GI50 and TGI values is PubChem BioAssay (NCI).

Holding throughout (assay): DTP human tumour cell line panel, 48 h
In assay [1] the test system is SR leukemia.
For assay [2], the system named is OVCAR-3 ovarian.
In assay [3] the test system is HCC-2998 colon.
Assay [4] concerns RXF 393 renal.
The test system of assay [5] is K-562 leukemia.
Assay [6] has as its system HCT-15 colon.
Assay [7] has as its system HOP-62 NSCLC.
For assay [8], the system named is MALME-3M melanoma.

Structures are written as SMILES. “And” between values parts separate entries of the source, which are not always exact repeats. Equal entries are not always repeated.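 Method: 48-hour compound exposure of cells in 96-well plates, five concentrations, linear interpolation of endpoints. GI50: concentration for 50% inhibition of growth. Definition used: TGI = concentration required for complete inhibition of growth.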 Some results are limits rather than exact numbers.

In general, GI50 refers to the concentration giving 50% growth inhibition. Broadly, the TGI is the concentration at which net growth stops. Consider `O=c1c2ccccc2c(/C=N\NC2=NCCN2)c2oc3ccccc3n12`, for which the GI50 in assay [1] was 6.12 µM; in assay [2] it was 18.6 µM; in assay [3], 12.9 µM; in assay [4], 21.4 µM; in assay [5] it was 22.2 µM; in assay [6], 14.7 µM. The GI50 in assay [7] is 28.6 µM. Further, the TGI was > 100 µM in assay [1]; 34.3 µM in assay [2]; 34.1 µM in assay [3]; 40.2 µM in assay [4]; > 100 µM in assay [5]; 62.1 µM in assay [6]. Besides, the TGI in assay [7] is > 100 µM.

For `N#Cc1c(NC(=O)c2ccc(F)cc2)sc2c1CCCC2`, the GI50 in assay [2], in assay [3], in assay [4], in assay [5], in assay [8] and in assay [6] was > 25 µM in each case. Besides, in assay [7], the GI50 is > 25 µM. In addition, the TGI in assay [2], in assay [3], in assay [4], in assay [5], in assay [8] and in assay [6] was > 25 µM in each case. The TGI in assay [7] is > 25 µM.

As to `COCCOC1=CC(=O)c2c(O)ccc(O)c2C1=O`, the concentration for 50% growth inhibition (GI50) in assay [2] was 0.319 µM; in assay [3], 1.7 µM; in assay [4], 1.5 µM; in assay [5] it was 1.4 µM; in assay [8], 0.808 µM; in assay [6], 1.6 µM. The GI50 in assay [7] is 1.9 µM. For the same compound, the TGI in assay [2] was 1.86 µM and 1.13 µM; in assay [3], 4.03 µM and 3.12 µM; in assay [4], 3.63 µM and 2.94 µM; in assay [5] it was 5.77 µM and 3.57 µM; in assay [8] it was 0.328 µM and 2.07 µM; in assay [6] it was 2.62 µM and 3.38 µM. Besides, the TGI in assay [7] is 1.8 µM and 3.31 µM.

Regarding `COC(=O)c1ccc(/C=C(\c2ccc([N+](=O)[O-])o2)S(=O)(=O)c2ccc(NC(C)=O)cc2)o1`, the TGI in assay [1] was found to be 4.32 µM; in assay [2] it was 19.7 µM; in assay [4], 25.7 µM; in assay [5], 18.1 µM; in assay [8] it was 8.91 µM; in assay [6] it was 6.83 µM. Also, the TGI in assay [7] stood at 33.4 µM.

Consider `C#CC(=O)Nc1cccc2c1cc(C)n2-c1nc2c(c(NCc3ccccc3)n1)CCCC2`, for which the GI50 was < 0.0201 µM in assay [1]; 0.335 µM in assay [3]; 0.152 µM in assay [4]; 0.368 µM in assay [5]; 0.0547 µM in assay [8]; 0.167 µM in assay [6]. Further, the TGI was found to be 0.0507 µM in assay [1]; 1 µM in assay [3]; 0.311 µM in assay [4]; 3.45 µM in assay [5]; 0.195 µM in assay [8]; 0.409 µM in assay [6].

Turning to `N#CC(C#N)=C1CCOc2ccc(F)cc21`, the GI50 was 12.6 µM in assay [1]; 11.9 µM in assay [2]; 17.4 µM in assay [4]; 50.4 µM in assay [5]; 15.5 µM in assay [6]; 13.2 µM in assay [7]. In addition, the TGI in assay [1] is 25.2 µM; in assay [2] it was 24.2 µM; in assay [4], 33.5 µM; in assay [5], > 100 µM; in assay [6], 30.3 µM; in assay [7], 25.9 µM.

As to `COc1c(/C=C/C=O)cc2c(c1OC)OCO2`, the TGI in assay [1] was 64.8 µM; in assay [2], > 100 µM; in assay [3] it was 78.5 µM; in assay [4] it was > 100 µM; in assay [8], 64 µM; in assay [6], 40.2 µM. The compound further returned a TGI in assay [7] of 73.7 µM.

On to `N#CC1=C(N)NC(=S)NC12Nc1ccccc1S2` (stereo not given), for which the GI50 in assay [1] is 15.8 µM; in assay [2] it was 14.6 µM; in assay [3] it was 33 µM; in assay [4], 33.8 µM; in assay [5], 30.3 µM; in assay [8], 24.2 µM. Further, the GI50 in assay [6] was 28.9 µM. The TGI in assay [1] is 46.8 µM; in assay [2], 38.1 µM; in assay [3], > 100 µM; in assay [4], > 100 µM; in assay [5] it was > 100 µM; in assay [8], 56.8 µM. Also, in assay [6], the TGI is > 100 µM.

On to `C=CC(=O)N1C[C@@H]2CCOc3c(Cl)c(-c4c(O)cccc4F)c(F)c4ncnc(c34)N2C[C@H]1C`, for which the GI50 in assay [2] was 6.11 µM; in assay [3], 15.2 µM; in assay [4] it was 2.15 µM; in assay [5], 8.72 µM; in assay [8], 10.8 µM; in assay [6], 11.8 µM. Further, the GI50 in assay [7] is 0.0507 µM. In addition, the concentration for total growth inhibition (TGI) in assay [2] is 18.5 µM; in assay [3] it was 28.8 µM; in assay [4], 15.1 µM; in assay [5], > 100 µM; in assay [8], 23.8 µM; in assay [6], 26.6 µM. In addition, in assay [7], the TGI worked out at 25.5 µM.

Turning to `COc1cc([N+](=O)[O-])c(OC)cc1-c1nc2sc(C)cn2c1/C(N)=N/C(=N)N`, the GI50 in assay [2] is 27.6 µM; in assay [4], 39.8 µM; in assay [5] it was 2.59 µM; in assay [8], 13 µM; in assay [6], > 100 µM; in assay [7], 71.3 µM. The TGI in assay [2] was > 100 µM; in assay [4], > 100 µM; in assay [5], > 100 µM; in assay [8] it was 45.2 µM; in assay [6], > 100 µM; in assay [7] it was > 100 µM.

Consider `CCOC(=O)C1=C(C)NC(=O)NC1CN1C(=O)c2ccccc2C1=O` (stereo not given), for which the GI50 in assay [2], in assay [3], in assay [4], in assay [5], in assay [8] and in assay [6] was > 100 µM in each case. Further, the GI50 in assay [7] was > 100 µM. Also, the total growth inhibition concentration (TGI) in assay [2], in assay [3], in assay [4], in assay [5], in assay [8] and in assay [6] was > 100 µM each time. The TGI in assay [7] was > 100 µM.

In the case of `O=C(c1ccccc1Cl)n1oc2ccccc2c1=O`, the TGI in assay [2], in assay [4], in assay [5], in assay [8], in assay [6] and in assay [7] was > 100 µM throughout.
